Measured values from US6649636B1, “Heteroaryl phenyl pyrazole compounds as anti-inflammatory/analgesic agents” (Pfizer Inc., priority 1999, dated 2003).

Row | melting point [°C] | SMILES
1 | 106 to 109 | CS(=O)(=O)c1ccc(-n2nc(C(F)(F)F)cc2-c2ccc(-c3ccco3)cc2)cn1 [Example 1, 5-[4-(2-Furyl)phenyl]-1-[2-(methylsulfonylpyridin)-5-yl]-3-trifluoromethyl-1H-pyrazole]
2 | 179 to 182 | Cc1cc(-c2cc(C(F)(F)F)nn2-c2ccc(S(C)(=O)=O)cn2)ccc1-c1cscn1 [Example 2]
3 | 120.8 | Cc1cc(-c2cc(C(F)(F)C(F)(F)F)nn2-c2ccc(S(C)(=O)=O)nc2)ccc1-c1cscn1 [Example 4]
4 | 81 to 83 | Cc1cc(-c2c(Cl)c(C(F)(F)F)nn2-c2ccc(S(C)(=O)=O)nc2)ccc1-c1cscn1 [Example 5]
5 | 170.5 to 171 | CS(=O)(=O)c1ccc(-n2nc(C(F)(F)F)c(F)c2-c2ccc(-c3cscn3)cc2)cn1 [Example 7]
6 | 154 to 155 | Cc1cc(-c2cc(C(F)(F)F)nn2-c2ccc(S(C)(=O)=O)cn2)ccc1-c1cocn1 [Example 9]
7 | 214 to 215 | Cc1cc(-c2cc(C(F)(F)F)nn2-c2ccc(S(C)(=O)=O)cn2)c(C)cc1-c1cscn1 [Example 10]
8 | 223 to 224 | Cc1cc(-c2c(C#N)cnn2-c2ccc(S(C)(=O)=O)cn2)ccc1-c1cscn1 [Example 11]
9 | 144 to 145 | COC(=O)c1cc(-c2ccc(-c3cscn3)c(C)c2)n(-c2ccc(S(C)(=O)=O)cn2)n1 [Example 12]
10 | 163 to 164 | CCc1c(C(F)(F)F)nn(-c2ccc(S(C)(=O)=O)cn2)c1-c1ccc(-c2cscn2)c(C)c1 [Example 13]
11 | 160 to 161.1 | Cc1cc(-c2cc(C(F)(F)F)nn2-c2ccc(S(C)(=O)=O)cn2)ccc1-c1ccco1 [Example 15]
12 | 165 to 166 | Cc1cc(-c2cc(C(F)(F)F)nn2-c2ccc(S(C)(=O)=O)cn2)ccc1-c1ccsc1 [Example 16]
13 | 95 to 100 | CS(=O)(=O)c1ccc(-n2nc(C(F)(F)F)cc2-c2ccc(-c3cscn3)c(Cl)c2)cn1 [Example 17]
14 | 210 to 211 | CS(=O)(=O)c1ccc(-n2nc(C(F)(F)F)cc2-c2ccc(-c3cscn3)cc2)nc1 [Example 18]
15 | 175.6 | CS(=O)(=O)c1ccc(-n2nc(C(F)(F)F)cc2-c2ccc(-c3cscn3)c(Cl)c2)nc1 [Example 19]
16 | 170 to 175 | COc1cc(-c2cc(C(F)(F)F)nn2-c2ccc(S(C)(=O)=O)cn2)ccc1-c1cscn1 [Example 20]
17 | 194.3 | CS(=O)(=O)c1ccc(-n2nc(C(F)(F)F)cc2-c2ccc(-c3cscn3)cc2F)nc1 [Example 21]
18 | 166.1 | CS(=O)(=O)c1ccc(-n2nc(C(F)(F)F)cc2-c2ccc(-c3cscn3)cc2Cl)nc1 [Example 22]
19 | 165.8 | CCc1cc(-c2cc(C(F)(F)F)nn2-c2ccc(S(C)(=O)=O)cn2)ccc1-c1cscn1 [Example 23]
20 | 187.5 | CS(=O)(=O)c1ccc(-n2nc(C(F)(F)F)cc2-c2ccc(-c3cscn3)c(F)c2)nc1 [Example 24]
21 | 158.9 | Cc1cc(-c2cc(C(F)(F)F)nn2-c2ccc(S(C)(=O)=O)c(F)n2)ccc1-c1cscn1 [Example 25]
22 | 156.9 | Cc1cc(-c2cc(C(F)F)nn2-c2ccc(S(C)(=O)=O)cn2)ccc1-c1cscn1 [Example 27]
23 | 174.5 to 176 | Cc1cc(-c2cc(C(F)(F)F)nn2-c2ccc(S(C)(=O)=O)cn2)ccc1-c1ncco1 [Example 28]
24 | 241 to 242 | Cc1cc(-c2cc(C(F)(F)F)nn2-c2ccc(S(C)(=O)=O)cn2)ccc1-c1nn[nH]n1 [Example 29]
25 | 189 | Cc1cc(-c2cc(C(F)(F)F)nn2-c2ccc(S(C)(=O)=O)cn2)ccc1-c1cnn[nH]1 [Example 30]
26 | 176.9 | Cc1nc(-c2ccc(-c3cc(C(F)(F)F)nn3-c3ccc(S(C)(=O)=O)nc3)cc2)cs1 [Example 32]
27 | 155 to 156 | CS(=O)(=O)c1ccc(-n2nc(C(F)(F)F)cc2-c2ccc(-c3ccc(Cl)s3)cc2)cn1 [Example 34]
28 | 123 to 124 | Cc1ccc(-c2ccc(-c3cc(C(F)(F)F)nn3-c3ccc(S(C)(=O)=O)nc3)cc2)s1 [Example 35]
29 | 209 to 212 | CS(=O)(=O)c1ccc(-n2nc(C(F)(F)F)cc2-c2ccc(-c3ccco3)cc2)nn1 [Example 36]
30 | 188 to 190 | CS(=O)(=O)c1cnc(-n2nc(C(F)(F)F)cc2-c2ccc(-c3ccco3)cc2)s1 [Example 37]
